According to ChEMBL document CHEMBL1828594, “Synthesis, stereochemistry and SAR of a series of minodronate analogues as RGGT inhibitors” (Eur J Med Chem, 2011):

Tests used:
[1] = tested on: J774; assay: Cytotoxicity against mouse J774 cells assessed as reduction in cell viability after 48 hrs; assay type: functional, cell-based; conditions: J774, 48 h
[2] = Inhibition of RGGT in cell-based assay assessed as inhibition of Rab11 prenylation after 24 hrs by Western blot analysis
[3] = Inhibition of RGGT assessed as [3H]GGPP incorporation into Rab1a protein after 30 mins

Row | IC50 [3] [µM] | Structure (SMILES) | IC50 [1] [µM] | LED [2] [µM]
1 | 6.11 | O=C(O)C(F)(Cc1cnc2ccccn12)P(=O)(O)O (stereo not given) | 60 | 6
2 | 5.56 | O=C(O)C(Br)(Cc1cnc2ccccn12)P(=O)(O)O (racemic) | > 600 | 25
3 | 13.4 | O=C(O)C(Cc1cnc2ccccn12)P(=O)(O)O (racemic) | > 600 | 12
4 | 1.24 | O=C(O)C(O)(Cc1cnc2ccccn12)P(=O)(O)O (racemic) [(2-HYDROXY-3-IMIDAZO[1,2-A]PYRIDIN-3-YL-2-PHOSPHONOPROPIONIC ACID (ENANTIONMERS)] | 50 | 3
5 | 7.5 | O=C(O)C(Cl)(Cc1cnc2ccccn12)P(=O)(O)O (racemic) | > 400 | 12
